Test results reported in patent publication US20050209157A1, “Short bioactive peptides and methods for their use” (priority 2001, published 2005).
Values after ≈ are worked out from the molar mass of the structure shown. No end group written: not given here.

Key:
[1] = tested on: Candida albicans ATCC 10231; experiment: Antimicrobial assay I, modified protocol (tryptic soy broth), MFC; settings: minimum fungicidal concentration, Table 4
Experimental: The preparation of all media, stock solutions, and dilutions took place in a laminar flow hood to prevent contamination. Bacterial cells were freshly grown on antibiotic medium 2 agar slants (pH 7.0 at 25° C.). Bacteria were suspended and diluted in antibiotic medium 3 to about 10^4 cfu/ml and used as the inoculum. Sample solutions (100 μl/well) were added to plates according to the plate layout. Inoculum (100 μl/well) was added to achieve a final concentration of 5×10^3 cfu/ml. Negative controls received 100 μl saline and 100 μl growth medium. Positive controls received 100 μl saline and 100 μl inoculum. Bacterial plates were incubated at 37° C. for 24 hours.
However, the data for Table 4 were obtained with a modified protocol wherein the medium was tryptic soy broth, inocolum strength was approximately 10^4 CFU per ml, and values determined were minimum bactericidal concentrations (MBC) or minimum fungicidal concentrations (MFC).
MBC or MFC values are in μg/mL. E. coli is Escherichia coli ATCC accession number 25922; P. aerug is Pseudomonas aeruginosa ATCC accession number 27853, S. aur. is Stapholococcus aureus ATCC accession number 25923; Candida is Candida albicans ATCC accession number 10231.

[2] = tested on: Stapholococcus aureus ATCC 25923; experiment: Antimicrobial assay I, modified protocol (tryptic soy broth), MBC; settings: minimum bactericidal concentration, Table 4
[3] = tested on: Escherichia coli ATCC 25922; experiment: as above; settings: minimum bactericidal concentration, Table 4
[4] = tested on: Pseudomonas aeruginosa ATCC 27853; experiment: as above; settings: minimum bactericidal concentration, Table 4

Compound	MFC Candida A.10231 [1]	MBC S. aur A.25923 [2]	MBC E. coli A.25922 [3]	MBC P. aerug A.27853 [4]
FAKLFAKAFKKAL-NH2 [compound 117]	INACT	INACT	INACT	INACT
CC(C)C[C@H](NC(=O)[C@H](CCCCN)NC(=O)[C@H](CC(C)C)NC(=O)[C@H](C)NC(=O)[C@H](CCCCN)NC(=O)[C@H](C)NC(=O)[C@H](CC(C)C)NC(=O)[C@H](CC(C)C)NC(=O)[C@H](CCCCN)NC(=O)[C@H](CCCCN)NC(=O)[C@H](C)NC(=O)[C@@H](N)Cc1ccccc1)C(N)=O [compound 110]	>50 µg/mL	>50 µg/mL	8 µg/mL (≈ 5.96 µM)	>50 µg/mL
CC(C)C[C@H](NC(=O)[C@H](C)NC(=O)[C@H](CC(C)C)NC(=O)[C@H](CCCCN)NC(=O)[C@H](C)NC(=O)[C@H](CC(C)C)NC(=O)[C@H](CCCCN)NC(=O)[C@H](CCCCN)NC(=O)[C@H](C)NC(=O)[C@H](CC(C)C)NC(=O)[C@H](CCCCN)NC(=O)[C@H](CCCCN)NC(=O)[C@H](C)NC(=O)[C@@H](N)Cc1ccccc1)C(N)=O [compound 45]	>50 µg/mL	80 µg/mL (≈ 51.9 µM)	30 µg/mL (≈ 19.5 µM)	40 µg/mL (≈ 25.9 µM)
FAKLLAKFLKKAL-NH2 [compound 113]	40 µg/mL	INACT	INACT	INACT
CC(C)C[C@H](NC(=O)[C@H](C)NC(=O)[C@H](CC(C)C)NC(=O)[C@H](C)NC(=O)[C@H](CC(C)C)NC(=O)[C@H](CCCCN)NC(=O)[C@H](C)NC(=O)[C@H](CC(C)C)NC(=O)[C@H](CCCCN)NC(=O)[C@H](CCCCN)NC(=O)[C@H](CC(C)C)NC(=O)[C@H](CCCCN)NC(=O)[C@H](CCCCN)NC(=O)[C@H](C)NC(=O)[C@H](CC(C)C)NC(=O)[C@H](CCCCN)NC(=O)[C@H](CCCCN)NC(=O)[C@H](C)NC(=O)[C@@H](N)Cc1ccccc1)C(=O)O [27C]	>40 µg/mL	>40 µg/mL	10 µg/mL (≈ 4.77 µM)	4 µg/mL (≈ 1.91 µM)
FGKGIGKVGKKLL-NH2 [compound 132]	INACT	INACT	INACT	INACT
CC[C@H](C)[C@H](NC(=O)[C@H](CCCCN)NC(=O)[C@H](CCCCN)NC(=O)[C@H](Cc1ccccc1)NC(=O)[C@H](CC(C)C)NC(=O)[C@H](CCCCN)NC(=O)[C@H](Cc1c[nH]c2ccccc12)NC(=O)[C@@H](N)CCCCN)C(=O)NCC(=O)N[C@@H](C)C(=O)N[C@H](C(=O)N[C@@H](CC(C)C)C(=O)N[C@@H](CCCCN)C(=O)N[C@H](C(=O)N[C@@H](CC(C)C)C(N)=O)C(C)C)C(C)C [compound 53]	30 µg/mL (≈ 16.9 µM)	10 µg/mL (≈ 5.65 µM)	15 µg/mL (≈ 8.47 µM)	15 µg/mL (≈ 8.47 µM)
FALALKA-NH2 [compound 141]	INACT	INACT	INACT	INACT
FAKIIAKIAKKI-NH2 [compound 143]	INACT	INACT	INACT	INACT
KWKLF-NH2 [compound 131]	INACT	INACT	INACT	INACT
CC(C)C[C@H](NC(=O)[C@H](CCCCN)NC(=O)[C@H](CCCCN)NC(=O)[C@H](C)NC(=O)[C@H](CC(C)C)NC(=O)[C@H](CCCCN)NC(=O)[C@H](C)NC(=O)[C@H](CCCCN)NC(=O)[C@H](CCCCN)NC(=O)[C@H](C)NC(=O)[C@H](CC(C)C)NC(=O)[C@H](CCCCN)NC(=O)[C@H](CCCCN)NC(=O)[C@H](C)NC(=O)[C@@H](N)Cc1ccccc1)C(N)=O [compound 77]	>50 µg/mL	>50 µg/mL	>50 µg/mL	>50 µg/mL
FAKGVGKVGKKAL-NH2 [compound 137]	INACT	INACT	INACT	INACT
CC(C)C[C@H](NC(=O)[C@H](CC(C)C)NC(=O)[C@H](C)NC(=O)[C@H](CCCCN)NC(=O)[C@H](C)NC(=O)[C@H](CC(C)C)NC(=O)[C@H](CCCCN)NC(=O)[C@H](CCCCN)NC(=O)[C@H](C)NC(=O)[C@@H](N)Cc1ccccc1)C(N)=O [compound 58]	>50 µg/mL	>50 µg/mL	>50 µg/mL	>50 µg/mL
FAKLA-NH2 [compound 128]	INACT	INACT	INACT	INACT
CC(C)C[C@H](NC(=O)[C@H](C)NC(=O)[C@H](CCCCN)NC(=O)[C@H](C)NC(=O)[C@H](CC(C)C)NC(=O)[C@H](CCCCN)NC(=O)[C@H](C)NC(=O)[C@H](CC(C)C)NC(=O)[C@H](CCCCN)NC(=O)[C@H](C)NC(=O)[C@H](CC(C)C)NC(=O)[C@H](CCCCN)NC(=O)[C@H](CCCCN)NC(=O)[C@H](C)NC(=O)[C@H](CC(C)C)NC(=O)[C@@H](N)CCCCN)C(N)=O [compound 159]	50 µg/mL (≈ 29.3 µM)	>250 µg/mL	10 µg/mL (≈ 5.86 µM)	10 µg/mL (≈ 5.86 µM)
FALKALKK-NH2 [compound 145]	100 µg/mL	INACT	INACT	INACT
FAFGKGIGKVGKKLL-NH2 [compound 133]	INACT	INACT	INACT	INACT
CC(C)C[C@H](NC(=O)[C@H](C)NC(=O)[C@H](CC(C)C)NC(=O)[C@H](C)NC(=O)[C@H](CC(C)C)NC(=O)[C@H](CCCCN)NC(=O)[C@H](C)NC(=O)[C@H](CC(C)C)NC(=O)[C@H](CCCCN)NC(=O)[C@H](CCCCN)NC(=O)[C@H](C)NC(=O)[C@H](CC(C)C)NC(=O)[C@H](CCCCN)NC(=O)[C@H](CCCCN)NC(=O)[C@H](CC(C)C)NC(=O)[C@H](CCCCN)NC(=O)[C@H](CCCCN)NC(=O)[C@H](C)NC(=O)[C@H](CC(C)C)NC(=O)[C@H](CCCCN)NC(=O)[C@H](CCCCN)NC(=O)[C@H](C)NC(=O)[C@@H](N)Cc1ccccc1)C(N)=O [compound 11]	>50 µg/mL	25 µg/mL (≈ 9.86 µM)	40 µg/mL (≈ 15.8 µM)	25 µg/mL (≈ 9.86 µM)
CC(C)C[C@H](NC(=O)[C@H](CCCCN)NC(=O)[C@H](CC(C)C)NC(=O)[C@H](Cc1c[nH]c2ccccc12)NC(=O)[C@H](CCCCN)NC(=O)[C@H](CCCCN)NC(=O)[C@H](C)NC(=O)[C@H](Cc1c[nH]c2ccccc12)NC(=O)[C@H](CCCCN)NC(=O)[C@H](CCCCN)NC(=O)[C@H](Cc1c[nH]c2ccccc12)NC(=O)[C@H](CC(C)C)NC(=O)[C@@H](N)CCCCN)C(=O)N[C@@H](Cc1c[nH]c2ccccc12)C(=O)N[C@@H](CCCCN)C(=O)N[C@@H](C)C(=O)O [compound 164]	25 µg/mL (≈ 11.7 µM)	25 µg/mL (≈ 11.7 µM)	25 µg/mL (≈ 11.7 µM)	25 µg/mL (≈ 11.7 µM)
